The numbers were not newly measured in patent US6150391A, “Diazabicyclo-octane derivatives as 5-HT receptor ligands” (Merck Sharp & Dohme Ltd., priority 1996, dated 2000), which cites them from elsewhere.

For data set [1] the following is noted: therapeutic doses.
Data set [2] relates to human 5-HT1D.sbsb.α and 5-HT1D.sbsb.β receptor subtypes. The following applies: cf WO-A-91/17174, Table 1.

For `CNS(=O)(=O)Cc1ccc2[nH]cc(CCN(C)C)c2c1` [sumatriptan], the “adverse events on administration to humans” value in data set [1] was “certain adverse cardiovascular events”. In addition, the “discrimination between the human 5-HT1D.sbsb.α and 5-HT1D.sbsb.β receptor subtypes” value in data set [2] was “barely discriminates”.
